# From ChEMBL document CHEMBL1140793, “Amino acid derivatives as histone deacetylase inhibitors” (2008)
# Columns and labels:
# [1] = biological target: Histone deacetylase 1 (Homo sapiens) (UniProt Q13547); assay: Inhibition of HDAC1
# HCT-116 = assay: Growth inhibition of human HCT116 cells after 72 hrs; format: functional
# Histone deacetylase 1 (Homo sapiens), sequence (Q13547 whole entry): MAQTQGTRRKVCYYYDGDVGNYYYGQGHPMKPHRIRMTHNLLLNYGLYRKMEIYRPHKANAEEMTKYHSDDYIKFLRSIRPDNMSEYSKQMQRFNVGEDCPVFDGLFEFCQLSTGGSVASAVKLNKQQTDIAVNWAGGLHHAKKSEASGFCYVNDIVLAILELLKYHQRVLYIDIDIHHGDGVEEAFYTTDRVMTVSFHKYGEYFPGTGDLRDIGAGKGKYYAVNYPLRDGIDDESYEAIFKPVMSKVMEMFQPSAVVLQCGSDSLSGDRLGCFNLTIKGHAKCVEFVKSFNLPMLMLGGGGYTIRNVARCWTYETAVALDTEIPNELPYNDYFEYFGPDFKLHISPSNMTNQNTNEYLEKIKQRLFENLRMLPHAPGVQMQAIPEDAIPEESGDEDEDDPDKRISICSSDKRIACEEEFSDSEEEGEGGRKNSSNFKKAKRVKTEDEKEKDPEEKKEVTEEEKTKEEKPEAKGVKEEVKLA
Inflection point [1] [nM],SMILES,Inflection point (HCT-116) [nM]
620,Nc1ccccc1NC(=O)c1ccc(C(C(=O)Nc2ccc3ccccc3c2)N2CCN(c3ccccc3)CC2)cc1 (stereo not drawn),
6200,CN1CCN(C(C(=O)Nc2ccc(Cl)cc2)c2ccc(C(=O)Nc3ccccc3N)cc2)CC1 (stereo not drawn),
80,CCN1CCN(C(C(=O)NCc2ccccc2)c2ccc3cc(C(=O)Nc4ccccc4N)sc3c2)CC1 (stereo not drawn),490
37,CN1CCN(C(Cc2ccc(C(=O)Nc3ccccc3N)cc2)C(=O)Nc2ccc3ccccc3c2)CC1 (stereo not drawn),220
43,COc1ccc(NC(=O)C(c2ccc3cc(C(=O)Nc4ccccc4N)sc3c2)N2CCN(C)CC2)cc1 (stereo not drawn),410
170,Nc1ccccc1NC(=O)c1ccc(C(NC(=O)Cc2ccccc2)C(=O)Nc2ccc3ccccc3c2)cc1 (stereo not drawn),2700
110,CN1CCN(C(C(=O)NCc2ccccc2)c2ccc3cc(C(=O)Nc4ccccc4N)sc3c2)CC1 (stereo not drawn),430
310,CN1CCN(C(Cc2ccc(C(=O)Nc3ccccc3N)cc2)C(=O)Nc2ccc(Cl)cc2)CC1 (stereo not drawn),370
25,CN1CCN(C(C(=O)Nc2ccc3ccccc3c2)c2ccc3cc(C(=O)Nc4ccccc4N)sc3c2)CC1 (stereo not drawn),580
690,Cc1ccc(NC(=O)C(NC(=O)Cc2ccccc2)c2ccc(C(=O)Nc3ccccc3N)cc2)cc1 (stereo not drawn),8100
360,CN1CCN(C(C(=O)Nc2ccc3ccccc3c2)c2ccc(C(=O)Nc3ccccc3N)cc2)CC1 (stereo not drawn),640
680,Nc1ccccc1NC(=O)c1ccc(C(C(=O)Nc2ccc3ccccc3c2)N2CCN(CCc3ccccc3)CC2)cc1 (stereo not drawn),
25,Cc1ccc(NC(=O)C(c2ccc3cc(C(=O)Nc4ccccc4N)sc3c2)N2CCN(C)CC2)cc1 (racemic) [listing 2 of 2 here],
21,"Cc1ccc(NC(=O)C(c2ccc3cc(C(=O)Nc4ccccc4N)sc3c2)N2CCN(C)CC2)cc1 (single isomer, unassigned; enantiomer 1) [listing 1 of 2 here]",
860,CN1CCN(C(C(=O)NCc2ccccc2)c2ccc(C(=O)Nc3ccccc3N)cc2)CC1 (stereo not drawn),
18,"Cc1ccc(NC(=O)C(c2ccc3cc(C(=O)Nc4ccccc4N)sc3c2)N2CCN(C)CC2)cc1 (single isomer, unassigned; enantiomer 2) [listing 2 of 2 here]",
250,Nc1ccccc1NC(=O)c1ccc(C(NC(=O)CCc2ccccc2)C(=O)Nc2ccc3ccccc3c2)cc1 (stereo not drawn),2700
62,CN1CCN(C(C(=O)Nc2ccc(Cl)cc2)c2ccc3cc(C(=O)Nc4ccccc4N)sc3c2)CC1 (stereo not drawn),340

# Further lines, the compound ahead of its results:
SMILES,Inflection point [1] [nM],Inflection point (HCT-116) [nM]
COc1ccc(NC(=O)C(NCCc2ccncc2)c2ccc3cc(C(=O)Nc4ccccc4N)sc3c2)cc1 (stereo not drawn),32,
COc1ccc(NC(=O)C(NCc2ccccc2)c2ccc3cc(C(=O)NO)sc3c2)cc1 (stereo not drawn),4,
COCCNC(C(=O)NCc1ccccc1)c1ccc2cc(C(=O)Nc3ccccc3N)sc2c1 (stereo not drawn),170,
Nc1ccccc1NC(=O)c1cc2ccc(C(C(=O)NCc3ccccc3)N3CCN(CCc4ccccc4)CC3)cc2s1 (stereo not drawn),180,
Nc1ccccc1NC(=O)c1cc2ccc(C(C(=O)NCc3ccccc3)N3CCN(c4ccccc4)CC3)cc2s1 (stereo not drawn),150,
"Cc1ccc(NC(=O)C(c2ccc3cc(C(=O)Nc4ccccc4N)sc3c2)N2CCN(C)CC2)cc1 (single isomer, unassigned; enantiomer 2) [listing 1 of 2 here]",,560
COc1ccc(NC(=O)C(NC(=O)CCc2ccccc2)c2ccc(C(=O)Nc3ccccc3N)cc2)cc1 (stereo not drawn),260,2800
COc1ccc(NC(=O)C(NC2CCCCC2)c2ccc3cc(C(=O)Nc4ccccc4N)sc3c2)cc1 (stereo not drawn),74,
Nc1ccccc1NC(=O)c1cc2ccc(C(NCCc3ccccn3)C(=O)NCc3ccccc3)cc2s1 (stereo not drawn),110,
CN(C)CCNC(C(=O)NCc1ccccc1)c1ccc2cc(C(=O)Nc3ccccc3N)sc2c1 (stereo not drawn),150,
Cc1ccc(NC(=O)C(c2ccc3cc(C(=O)Nc4ccccc4N)sc3c2)N2CCN(C)CC2)cc1 (racemic) [listing 1 of 2 here],,240
COc1ccc(CNC(C(=O)Nc2ccc(OC)cc2)c2ccc3cc(C(=O)Nc4ccccc4N)sc3c2)cc1 (stereo not drawn),90,
Nc1ccccc1NC(=O)c1cc2ccc(C(NCCO)C(=O)NCc3ccccc3)cc2s1 (stereo not drawn),150,
CC(C)(C)OC(=O)N1CCN(C(C(=O)NCc2ccccc2)c2ccc3cc(C(=O)Nc4ccccc4N)sc3c2)CC1 (stereo not drawn),260,
COc1ccc(NC(=O)C(NC(=O)Cc2ccccc2)c2ccc(C(=O)Nc3ccccc3N)cc2)cc1 (stereo not drawn),870,6400
COc1ccc(NC(=O)C(NCCc2ccccc2)c2ccc3cc(C(=O)Nc4ccccc4N)sc3c2)cc1 (stereo not drawn),71,
Nc1ccccc1NC(=O)c1cc2ccc(C(NCCc3ccncc3)C(=O)NCc3ccccc3)cc2s1 (stereo not drawn),39,
COc1ccc(NC(=O)C(NCc2ccccc2)c2ccc3cc(C(=O)Nc4ccccc4N)sc3c2)cc1 (stereo not drawn),79,
Nc1ccccc1NC(=O)c1cc2ccc(C(NCCc3ccccc3)C(=O)NCCN3CCOCC3)cc2s1 (stereo not drawn),230,
Nc1ccccc1NC(=O)c1cc2ccc(C(C(=O)NCc3ccccc3)N3CCN(C(=O)OCc4ccccc4)CC3)cc2s1 (stereo not drawn),470,
"Cc1ccc(NC(=O)C(c2ccc3cc(C(=O)Nc4ccccc4N)sc3c2)N2CCN(C)CC2)cc1 (single isomer, unassigned; enantiomer 1) [listing 2 of 2 here]",,130
Nc1ccccc1NC(=O)c1cc2ccc(C(NCCc3ccccc3)C(=O)NCc3ccccc3)cc2s1 (stereo not drawn),70,
Nc1ccccc1NC(=O)c1cc2ccc(C(NCc3cccnc3)C(=O)NCc3ccccc3)cc2s1 (stereo not drawn),180,
Nc1ccccc1NC(=O)c1cc2ccc(C(NCCc3ncc[nH]3)C(=O)NCc3ccccc3)cc2s1 (stereo not drawn),520,
Nc1ccccc1NC(=O)c1cc2ccc(C(C(=O)NCc3ccccc3)N3CCN(C/C=C/c4ccccc4)CC3)cc2s1 (stereo not drawn),230,
Cc1ccc(NC(=O)C(NC(=O)CCc2ccccc2)c2ccc(C(=O)Nc3ccccc3N)cc2)cc1 (stereo not drawn),340,3000
